In the assay the target is T1, rabbit reticulocyte 15-LO (Oryctolagus cuniculus, UniProt P12530).
T1 construct: rabbit reticulocyte 15-LO; from tissue; host or cells: rabbit reticulocytes
T1 sequence (P12530 1-663): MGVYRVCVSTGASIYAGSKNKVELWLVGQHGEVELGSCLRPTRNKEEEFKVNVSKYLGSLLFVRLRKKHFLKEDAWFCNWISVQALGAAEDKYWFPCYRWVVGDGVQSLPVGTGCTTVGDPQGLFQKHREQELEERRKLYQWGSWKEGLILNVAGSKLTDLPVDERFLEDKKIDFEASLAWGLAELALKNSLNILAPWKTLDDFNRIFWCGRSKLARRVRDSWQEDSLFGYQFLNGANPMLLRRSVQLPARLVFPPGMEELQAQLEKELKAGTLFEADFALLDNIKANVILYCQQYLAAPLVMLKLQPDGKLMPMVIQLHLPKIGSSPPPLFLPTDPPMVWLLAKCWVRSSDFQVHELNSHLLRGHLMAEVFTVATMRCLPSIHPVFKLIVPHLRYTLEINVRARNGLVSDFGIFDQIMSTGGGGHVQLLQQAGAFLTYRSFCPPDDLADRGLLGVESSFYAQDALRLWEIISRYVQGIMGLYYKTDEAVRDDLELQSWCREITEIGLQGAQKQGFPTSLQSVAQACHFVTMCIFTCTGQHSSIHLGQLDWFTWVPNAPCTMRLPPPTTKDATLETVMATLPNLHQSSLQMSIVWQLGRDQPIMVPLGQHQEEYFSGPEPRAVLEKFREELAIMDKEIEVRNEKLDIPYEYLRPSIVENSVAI
The experiment in a line: Colorimetric Assay of 15-LO Inhibition. The format is biochemical. To be noted: colorimetric method. The procedure:
The isothiazolones of Formula I are also effective for treating inflammation and atherosclerosis. A characteristic feature of atherosclerosis is the accumulation of cholesteryl ester engorged from foam cells. Foam cells are derived from circulating monocytes which invade artery walls in response to hypercholesterolemia, and mature into tissue macrophages. […] Specifically, representative compounds were evaluated by the methods described by Auerbach, et al., Analytical Biochemistry, 1992;201:375-380. Two in vitro assays were utilized, both utilizing rabbit reticulocyte 15-LO, and linoleic acid as substrate, to enzymatically produce a peroxide oxidation product known as 13(S)-HPODE. N-Benzoyl leucomethylene blue was utilized as a colorimetric reagent for detection and quantification of the peroxide formation. Also, HPLC was utilized to quantify the oxidation following incubation at 4° C. for 10 minutes.
Table 3 gives the concentration of compound required to inhibit 50% of the activity of 15-LO (IC50) when measured by the HPLC method of Auerbach, et al. Table 4 gives the percent inhibition of 15-LO activity when evaluated by the colorimetric method.

As to `NS(=O)(=O)c1ccc(-n2sc3ccccc3c2=O)cc1` [Example 1, 4-(3-Oxo-3h-benzo[d]isothiazol-2-yl)-benzenesulfonamide], the inhibition (commonly the percentage by which the read-out fell short of the control) at 10 µM was 35%.

The record behind these values is US5620997A, “Isothiazolones” (Warner-Lambert Company, priority 1995, dated 1997).
